Each structure is given as a SMILES string.

Assay [1] addresses Coagulation factor X (Homo sapiens, UniProt P00742). The experiment in a line: In vitro inhibition of Coagulation factor X.
The target in assay [2] is Prothrombin (Homo sapiens, UniProt P00734). As to the kind of experiment: In vitro inhibition of thrombin.
Assay [3] has as its target Serine protease 1 (Homo sapiens, UniProt P07477). The experiment in a line: In vitro inhibition of trypsin.

Sequence of Serine protease 1 (P07477 whole entry): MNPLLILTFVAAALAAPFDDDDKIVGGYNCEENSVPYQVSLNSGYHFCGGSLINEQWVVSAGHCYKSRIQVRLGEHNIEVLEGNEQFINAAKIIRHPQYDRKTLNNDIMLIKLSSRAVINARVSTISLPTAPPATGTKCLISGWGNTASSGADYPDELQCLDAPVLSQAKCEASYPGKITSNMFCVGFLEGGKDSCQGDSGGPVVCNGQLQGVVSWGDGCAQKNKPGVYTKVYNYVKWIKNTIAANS
Sequence of Coagulation factor X (P00742 41-179 limits assumed): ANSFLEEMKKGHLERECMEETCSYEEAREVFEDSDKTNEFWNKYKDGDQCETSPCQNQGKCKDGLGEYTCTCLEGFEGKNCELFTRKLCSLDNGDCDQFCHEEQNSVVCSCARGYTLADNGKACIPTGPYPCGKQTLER
Sequence of Coagulation factor X (P00742 235-488 limits assumed): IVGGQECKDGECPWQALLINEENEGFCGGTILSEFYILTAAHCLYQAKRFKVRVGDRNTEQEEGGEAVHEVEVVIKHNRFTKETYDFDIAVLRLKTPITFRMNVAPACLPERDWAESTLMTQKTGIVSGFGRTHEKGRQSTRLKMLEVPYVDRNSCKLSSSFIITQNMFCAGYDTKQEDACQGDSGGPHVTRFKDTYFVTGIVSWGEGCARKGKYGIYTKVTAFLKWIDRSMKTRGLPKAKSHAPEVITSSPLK

As for `COC(=O)CNC(=O)CC(CCc1ccc(C(=N)N)cc1)c1cccc(C(=N)N)c1` (centres undefined), the figures for the Ki in assay [1] and in assay [2] were 2400 nM and 12600 nM, respectively.
Consider `CCOC(=O)CC(CCc1ccc(C(=N)N)cc1)c1cccc(C(=N)N)c1` (centres undefined), for which the inhibition constant Ki (usually a dissociation constant, usually derived from enzyme kinetics or from competition with a known ligand) in assay [1] came to 42 nM; in assay [3] it was 110 nM; in assay [2] it was 1100 nM.
The like results for `COC(=O)CC(CCc1ccc(C(N)=O)cc1)c1cccc(C(=N)N)c1` (centres undefined) were, in that order, 550 nM, 870 nM and 6500 nM.
`COC(=O)CC(CCc1ccc(C(=O)OC)cc1)c1cccc(C(=N)N)c1` (centres undefined): the inhibitory constant (Ki) turned out to be 2800 nM in assay [1], 330 nM in assay [3] and 3600 nM in assay [2].
Taken in the same sequence, the figures for `COC(=O)CC(CCc1ccc(N=C(N)N)cc1)c1cccc(C(=N)N)c1` (centres undefined) were 9 nM, 96 nM and 3100 nM.
On to `COC(=O)CC(CCc1cccc(C(=N)N)c1)c1cccc(C(=N)N)c1` (centres undefined), for which the Ki in assay [1] worked out at 2800 nM; in assay [2], 8500 nM.
With `CNC(=O)CC(CCc1ccc(C(=N)N)cc1)c1cccc(C(=N)N)c1` (centres undefined), the Ki in assay [1] amounted to 940 nM; in assay [3] it was 820 nM; in assay [2], 8000 nM.
Regarding `CCOC(=O)CC(CCc1ccc(C(=N)N)cc1)c1ccc(C(=N)N)cc1` (centres undefined), the inhibition constant Ki in assay [1] came to 22900 nM; in assay [2], 1200 nM.
For the compound `COC(=O)CC(CCc1ccc(C(=N)N)cc1)c1cccc(C(=N)N)c1` (centres undefined), the inhibition constant Ki was determined as 34 nM in assay [1], 99 nM in assay [3] and 1200 nM in assay [2].
The like results for `COC(=O)CC(CCc1ccc(N)cc1)c1cccc(C(=N)N)c1` (centres undefined) were, in that order, 5000 nM, 1200 nM and 7700 nM.
Regarding `N=C(N)c1ccc(CCC(=O)c2cccc(C(=N)N)c2)cc1`, the Ki amounted to 5100 nM in assay [1] and 4400 nM in assay [2].
For `N=C(N)c1ccc(CCC(CC(=O)N2CCCC2)c2cccc(C(=N)N)c2)cc1` (centres undefined), the inhibition constant (Ki) came to 1150 nM in assay [1], 440 nM in assay [3] and 2800 nM in assay [2].
Turning to `CCOC(=O)CC(CCc1cccc(C(=N)N)c1)c1ccc(C(=N)N)cc1` (centres undefined), the Ki in assay [1] came out at 1640 nM; in assay [2], 3430 nM.
The like results for `CCOC(=O)CC(CCc1ccc(C(=N)N)cc1)c1ccccc1` (centres undefined) were, in that order, greater than 30000 nM and 6200 nM.
For the compound `N=C(N)c1ccc(CCC(CC(=O)O)c2cccc(C(=N)N)c2)cc1` (centres undefined), the Ki is greater than 1200 nM in assay [3] and greater than 4200 nM in assay [2].
On to `CONC(=O)CC(CCc1ccc(C(=N)N)cc1)c1cccc(C(=N)N)c1` (centres undefined), for which the inhibition constant Ki stood at 2400 nM in assay [1] and 19600 nM in assay [2].
For `COC(=O)CC(CCc1ccc(NS(=O)(=O)c2ccccc2)cc1)c1cccc(C(=N)N)c1` (centres undefined), the inhibition constant (Ki) in assay [1] worked out at 1100 nM; in assay [3], 610 nM; in assay [2], 1750 nM.
The like results for `COC(=O)CC(CCCCc1ccc(N=C(N)N)cc1)c1cccc(C(=N)N)c1` (centres undefined) were, in that order, 57 nM, 760 nM and 3300 nM.
As to `CCOC(=O)CC(CCc1ccccc1)c1cccc(C(=N)N)c1` (centres undefined), the Ki in assay [1] is 2900 nM; in assay [2] it was greater than 2100 nM.
For `COC(=O)CC(CCc1ccc(NS(C)(=O)=O)cc1)c1cccc(C(=N)N)c1` (centres undefined), the Ki was determined as 654 nM in assay [1], 110 nM in assay [3] and 3100 nM in assay [2].
Regarding `CC(C)OC(=O)CC(CCc1ccc(C(=N)N)cc1)c1cccc(C(=N)N)c1` (centres undefined), the inhibition constant Ki in assay [1] is 192 nM; in assay [3] it was 140 nM; in assay [2], 1540 nM.

These data come from ChEMBL document CHEMBL1131205, “Rational design and synthesis of novel, potent bis-phenylamidine carboxylate factor Xa inhibitors” (J Med Chem, 1998).
